Data from article PMC11783601, “Analogue-Sensitive Inhibition of Histone Demethylases Uncovers Member-Specific Function in Ribosomal Protein Synthesis” (Journal of the American Chemical Society, 2025).

Molecular target: T1, full-length wild type KDM4A (Homo sapiens, UniProt O75164)
T1 construct: Expression of full-length KDM4A-E and their mutants in HEK293T cells; host or cells: HEK293T
Test: H3K9me3 Western blot of nuclear extracts of transfected HEK293T cells
Assay type: cell-based
Details: 10 μM n-octyl IOX1, Western blot
Description: To test the orthogonality of NOL toward wild type KDM4A, HEK293T cells, either nontransfected or transfected with KDM4A, were individually treated with DMSO, 400 μM 6A or 10 μM n-octyl IOX1, a nonspecific inhibitor of 2OG enzymes. […] To further probe for off-target effects of 6 on endogenous 2OG enzymes, HEK293T cells were cultured with DMSO or 400 μM 6A and examined for several postsynthetic modifications catalyzed by these dioxygenases. Key trimethylated lysine marks on extracted histone were analyzed by Western blot using corresponding antibodies (Figure S31). […] Similarly, no change in prolyl hydroxylation was detected when cellular extracts were subjected to the pan hydroxyproline antibody.
KDM4A mammalian expression plasmid in CMV vector was purchased from Addgene (plasmid #24180). KDM4B mammalian expression plasmid in CMV vector was purchased from Addgene (plasmid #24181). KDM4C mammalian expression plasmid in CMV vector was purchased from Addgene (plasmid #24214). KDM4D mammalian expression plasmid in pReciever vector was purchased from Genecopoia (EX-Z0917-M06.) KDME mammalian expression plasmid in pRP-EXP was designed from Vector Builder. […]
20. Quantification of fixed-cell imaging data
TIF images obtained from confocal microscopy experiments were quantified in ImageJ. […]

T1 sequence (O75164 whole entry): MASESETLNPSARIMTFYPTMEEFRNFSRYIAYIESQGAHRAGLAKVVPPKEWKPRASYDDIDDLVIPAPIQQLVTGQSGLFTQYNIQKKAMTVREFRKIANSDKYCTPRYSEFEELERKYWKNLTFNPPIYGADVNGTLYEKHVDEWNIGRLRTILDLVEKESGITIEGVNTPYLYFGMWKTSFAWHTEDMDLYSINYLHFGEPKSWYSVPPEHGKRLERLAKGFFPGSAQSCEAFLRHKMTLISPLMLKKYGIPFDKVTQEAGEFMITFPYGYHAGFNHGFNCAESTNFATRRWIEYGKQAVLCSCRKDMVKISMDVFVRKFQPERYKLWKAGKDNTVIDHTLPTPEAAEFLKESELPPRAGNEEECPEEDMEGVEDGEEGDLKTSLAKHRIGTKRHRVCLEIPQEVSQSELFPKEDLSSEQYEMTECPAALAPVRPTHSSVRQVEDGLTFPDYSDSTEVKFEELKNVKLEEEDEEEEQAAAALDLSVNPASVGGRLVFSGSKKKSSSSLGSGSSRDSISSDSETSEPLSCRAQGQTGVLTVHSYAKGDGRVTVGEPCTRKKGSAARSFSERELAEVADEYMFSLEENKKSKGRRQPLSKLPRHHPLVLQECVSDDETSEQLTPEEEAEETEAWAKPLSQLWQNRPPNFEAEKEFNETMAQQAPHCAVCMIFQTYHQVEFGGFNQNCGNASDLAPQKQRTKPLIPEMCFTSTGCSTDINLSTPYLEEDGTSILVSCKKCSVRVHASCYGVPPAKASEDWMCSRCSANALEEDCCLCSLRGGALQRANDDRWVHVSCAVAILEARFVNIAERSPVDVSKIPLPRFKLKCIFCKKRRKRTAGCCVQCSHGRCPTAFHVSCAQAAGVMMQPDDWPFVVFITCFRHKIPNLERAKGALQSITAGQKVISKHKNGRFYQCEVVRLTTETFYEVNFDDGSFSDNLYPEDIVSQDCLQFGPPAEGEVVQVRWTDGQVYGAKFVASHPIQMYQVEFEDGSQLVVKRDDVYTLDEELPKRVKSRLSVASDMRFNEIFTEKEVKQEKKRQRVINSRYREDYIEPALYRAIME

inhibition of wild type KDM4A H3K9me3 demethylation: Inhibition
inhibition of wild type KDM4A H3K9me3 demethylation (listed as IOX1): strongly inhibited
SMILES: CCCCCCCCOC(=O)c1ccc(O)c2ncccc12 [n-octyl IOX1]
